The supplement of paper PMC10307832

Legend:
Test in all cases: relative viability (nuclei count vs DMSO), 5 days (fraction); higher = more cells survive
[1] = compound: CCN(CCO)CCCC(C)Nc1ccnc2cc(Cl)ccc12 [Hydroxychloroquine] + COc1cccc2cc(-c3nc([C@H]4CC[C@H](C(=O)O)CC4)n4ncnc(N)c34)[nH]c12 [OSI-027] (partner 0.5 µM)
Summary of the method: (§1)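 Lung cancer cell lines in 1536-well plates were dosed by pin tool the day after seeding, either with one drug alone or with a fixed anchor-drug dose plus five library-drug doses (not always all listed) in √10 steps. After 5 days, cells were fixed and their nuclei stained in one step (final 0.05% Triton X-100, 1% formaldehyde, 1 ug/ml Hoechst), then counted on 4× images. Relative viability is the nuclei count in treated wells divided by that in vehicle wells. Values are medians of duplicate plates.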

[2] = compound: CCN(CCO)CCCC(C)Nc1ccnc2cc(Cl)ccc12 [Hydroxychloroquine] + CCNC(=O)c1noc(-c2cc(C(C)C)c(O)cc2O)c1-c1ccc(CN2CCOCC2)cc1 [Luminespib] (partner 0.01 µM)
Summary of the method: as §1

[3] = compound: CCN(CCO)CCCC(C)Nc1ccnc2cc(Cl)ccc12 [Hydroxychloroquine] + CS(=O)(=O)CCNCc1ccc(-c2ccc3ncnc(Nc4ccc(OCc5cccc(F)c5)c(Cl)c4)c3c2)o1 [Lapatinib] (partner 2 µM)
Summary of the method: as §1

[4] = compound: CCN(CCO)CCCC(C)Nc1ccnc2cc(Cl)ccc12 [Hydroxychloroquine] + C[C@]1(O)C[C@@H](c2nc(-c3ccc4ccc(-c5ccccc5)nc4c3)c3c(N)nccn32)C1 [Linsitinib] (partner 1 µM)
Summary of the method: as §1

Cell Line | relative viability ([1]; first compound 0.5 µM) | relative viability ([1]; first compound 1.581 µM) | relative viability ([1]; first compound 5 µM) | relative viability ([1]; first compound 15.81 µM) | relative viability ([1]; first compound 50 µM) | relative viability ([2]; first compound 0.5 µM) | relative viability ([2]; first compound 1.581 µM) | relative viability ([2]; first compound 5 µM) | relative viability ([2]; first compound 15.81 µM) | relative viability ([2]; first compound 50 µM) | relative viability ([3]; first compound 0.5 µM) | relative viability ([3]; first compound 1.581 µM) | relative viability ([3]; first compound 5 µM) | relative viability ([3]; first compound 15.81 µM) | relative viability ([3]; first compound 50 µM) | relative viability ([4]; first compound 0.5 µM) | relative viability ([4]; first compound 1.581 µM) | relative viability ([4]; first compound 5 µM) | relative viability ([4]; first compound 15.81 µM) | relative viability ([4]; first compound 50 µM)
EMC-BAC-2 | 0.376 | 0.324 | 0.381 | 0.368 | 0.365 | 1.2 | 1.03 | 1.14 | 1.18 | 1.19 | 0.96 | 0.722 | 0.897 | 0.832 | 0.956 | 0.817 | 0.772 | 0.87 | 0.82 | 0.852
LOU-NH91 | 0.667 | 0.616 | 0.758 | 0.701 | 0.736 | 0.369 | 0.313 | 0.307 | 0.345 | 0.371 | 0.759 | 0.591 | 0.776 | 0.754 | 0.738 | 0.907 | 0.811 | 0.981 | 0.937 | 0.946
LU99A | 0.304 | 0.258 | 0.327 | 0.283 | 0.329 | 0.279 | 0.248 | 0.265 | 0.226 | 0.268 | 1.05 | 0.937 | 0.871 | 1.08 | 1.01 | 0.525 | 0.478 | 0.437 | 0.527 | 0.503
NCI-H1395 | 0.67 | 0.566 | 0.639 | 0.638 | 0.549 | 0.655 | 0.785 | 0.722 | 0.886 | 0.483 | 1.25 | 1.09 | 0.907 | 0.877 | 0.955 | 0.964 | 0.979 | 1.13 | 1.13 | 1.18
NCI-H520 | 0.301 | 0.22 | 0.285 | 0.324 | 0.268 | 0.236 | 0.226 | 0.217 | 0.184 | 0.209 | 0.934 | 0.898 | 0.857 | 0.958 | 0.978 | 1.25 | 0.908 | 0.908 | 1.16 | 0.923
201T | 0.731 | 0.738 | 0.721 | 0.827 | 0.965 | 0.992 | 1.04 | 1.07 | 1.03 | 1.05 | 1.05 | 1.02 | 1.02 | 1.02 | 1.05 | 1.07 | 0.987 | 1.07 | 1 | 1.13
NCI-H1944 | 0.445 | 0.33 | 0.418 | 0.337 | 0.453 | 0.772 | 0.676 | 0.64 | 0.866 | 0.831 | 0.762 | 0.755 | 0.797 | 0.867 | 0.967 | 1.12 | 1.09 | 1.16 | 1.11 | 1.19
NCI-H2405 | 0.626 | 0.55 | 0.652 | 0.627 | 0.658 | 0.763 | 0.613 | 0.671 | 0.663 | 0.579 | 1.09 | 0.998 | 1.1 | 1.04 | 1.15 | 0.923 | 0.806 | 0.92 | 0.98 | 0.968
NCI-H1755 | 0.797 | 0.617 | 0.628 | 0.649 | 0.574 | 0.489 | 0.403 | 0.517 | 0.354 | 0.432 | 1.06 | 0.875 | 1.02 | 1 | 1.02 | 1.02 | 0.838 | 0.933 | 0.972 | 0.878
NCI-H2087 | 0.584 | 0.375 | 0.529 | 0.672 | 0.78 | 0.187 | 0.195 | 0.175 | 0.19 | 0.329 | 1.11 | 0.907 | 0.942 | 0.946 | 1.11 | 1.01 | 0.887 | 0.893 | 0.951 | 0.965
NCI-H2228 | 0.617 | 0.569 | 0.634 | 0.548 | 0.669 | 0.24 | 0.122 | 0.162 | 0.185 | 0.112 | 1.05 | 0.999 | 0.972 | 0.705 | 1.18 | 0.958 | 0.647 | 0.706 | 0.632 | 0.703
NCI-H838 | 0.421 | 0.392 | 0.37 | 0.406 | 0.401 | 0.318 | 0.304 | 0.333 | 0.295 | 0.268 | 1.07 | 1.02 | 1.03 | 0.923 | 1.12 | 0.929 | 0.91 | 1.01 | 0.93 | 1.04
NCI-H661 | 0.668 | 0.52 | 0.629 | 0.583 | 0.697 | 1.02 | 0.926 | 0.85 | 0.915 | 0.922 | 0.433 | 0.426 | 0.43 | 0.467 | 0.465 | 0.537 | 0.361 | 0.564 | 0.542 | 0.598
NCI-H596 | 0.755 | 0.672 | 0.625 | 0.761 | 0.883 | 1.09 | 1.03 | 0.959 | 0.993 | 0.958 | 0.969 | 0.995 | 1.04 | 1.05 | 1 | 0.947 | 1.11 | 1.13 | 1.04 | 0.982
